Columns and labels:
[1] = target: T1, human E3 ubiquitin-protein ligase RNF31 (HOIP) (Homo sapiens, UniProt Q96EP0); assay: Cell-free HTRF-based HOIP inhibition assay; type: biochemical
T1 sequence (Q96EP0 695-1072 limits assumed): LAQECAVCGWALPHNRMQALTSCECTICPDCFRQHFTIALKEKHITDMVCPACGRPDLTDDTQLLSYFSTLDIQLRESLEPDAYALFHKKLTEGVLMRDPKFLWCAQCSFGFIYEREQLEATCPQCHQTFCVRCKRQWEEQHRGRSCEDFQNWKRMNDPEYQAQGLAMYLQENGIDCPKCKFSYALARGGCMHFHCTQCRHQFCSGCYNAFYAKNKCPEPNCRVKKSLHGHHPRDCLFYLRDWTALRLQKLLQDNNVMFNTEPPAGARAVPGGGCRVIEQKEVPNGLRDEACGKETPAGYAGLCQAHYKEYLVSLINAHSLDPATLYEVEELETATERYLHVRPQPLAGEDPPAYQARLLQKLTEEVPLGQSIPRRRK
Experimental: This assay was performed in the following steps: • a) synthesis of recombinant fragment of human E3 ubiquitin-protein ligase RNF31 (HOIP), expressed with purity >90% in E. coli system (the protein was prepared as 1 mg/mL stock in a standard formulation); • b) incubation of the compounds in a typical concentration range: 100-0.005 μM, at a final DMSO conc. 1% with a mixture of HOIP and ubiquitin activating enzyme E1 at 25° C., for 1 h at 25° C.; • c) followed by addition of a ubiquitination solution including E2 and substrates (the reaction proceeds for 2.5 h at 25° C.); and • d) HTRF detection was performed using a PHERAstar FSX (BMG Labtech) plate reader (excitation at 337 nm, dual emissions at 665 and 620 nm).

[2] = system: bladder carcinoma RT4 cell line; assay: TNF-α-induced cytotoxicity assay (CellTiter-Glo viability); type: cell-based; conditions: Homo sapiens, RT-4, 72 h
Experimental: A viability assay, using bladder carcinoma RT4 cell line, was used for identifying the potential inhibitory effect of tested compounds on HOIP activity. The viability was determined by CellTiter-Glo Luminescent Cell Viability Assay (G7571, Promega) which measures the ability of generating a luminescent signal proportional to the amount of ATP present in living cells. The assay consists of a few steps: • a) the cells were routinely sub cultivated twice a week with standard complete growth medium composition; • b) cells were preparated for the assay by creating a cell suspension at the density of 0.05 mln cells/mL and dispensed into plates (ViewPlate-384, PerkinElmer) resulting in 1000 cells/well; • c) cells were stimulated with 1.25 ng/mL TNFα and with compounds and incubated for 72 h at 37° C. in the atmosphere with 5% CO2; and • d) for detection cytotoxicity was measured with CellTiter-Glo® Luminescent Cell Viability Assay based on the method described by the manufacturer.

SMILES | IC50 [1] [nM] | IC50 [2] [nM]
CN1CCCc2cc(S(=N)(=O)/C=C/CNC(=O)c3cc4c([nH]c3=O)CCCC4)ccc21 (stereo not shown) [Example 177, N-[(2E)-3-[imino(1-methyl-1,2,3,4-tetrahydroquinolin-6-yl)oxo-A*-sulfanyl]prop-2-en-1-yl]-2-oxo-1,2,5,6,7,8-hexahydroquinoline-3-carboxamide] | ≤ 100 | ≤ 1000
COc1ccc(S(=N)(=O)/C=C/CNC(=O)c2ccc[nH]c2=O)cc1F (stereo not shown) [Example 186, N-[(2E)-3-[(3-fluoro-4-methoxyphenyl)(imino)oxo-λ^6-sulfanyl]prop-2-en-1-yl]-2-oxo-1,2-dihydropyridine-3-carboxamide] | ≤ 1000 | ≤ 10000
N#Cc1cc(S(=N)(=O)/C=C/CNC(=O)c2cc3c([nH]c2=O)CCCC3)ccc1N1CCOCC1 (stereo not shown) [Example 175, N-[(2E)-3-{[3-cyano-4-(morpholin-4-yl)phenyl](imino)oxo-λ^6-sulfanyl}prop-2-en-1-yl]-2-oxo-1,2,5,6,7,8-hexahydroquinoline-3-carboxamide] | ≤ 100 | ≤ 10000
COc1ccc(S(=N)(=O)/C=C/CNC(=O)c2cc3c([nH]c2=O)C(C)(C)CCC3)cc1F (stereo not shown) [Example 155, N-[(2E)-3-[(3-fluoro-4-methoxyphenyl)(imino)oxo-λ^6-sulfanyl]prop-2-en-1-yl]-8,8-dimethyl-2-oxo-1,2,5,6,7,8-hexahydroquinoline-3-carboxamide] | ≤ 10000 | ≤ 10000
N#Cc1cc(S(=N)(=O)/C=C/CNC(=O)c2cc3c([nH]c2=O)CCCC3)ccc1N1CCCCC1 (stereo not shown) [Example 173, N-[(2E)-3-{[3-cyano-4-(piperidin-1-yl)phenyl](imino)oxo-λ^6-sulfanyl}prop-2-en-1-yl]-2-oxo-1,2,5,6,7,8-hexahydroquinoline-3-carboxamide] | ≤ 100 | ≤ 1000
O=C(NC/C=C/S(=O)(=O)c1ccccc1Cl)c1cc(-c2ccccc2)c[nH]c1=O [Example 129, N-[(2E)-3-(2-chlorobenzenesulfonyl)prop-2-en-1-yl]-2-oxo-5-phenyl-1,2-dihydropyridine-3-carboxamide] | ≤ 1000 | ≤ 10000
COc1ccc(CN2CCc3[nH]c(=O)c(C(=O)NC/C=C/S(=N)(=O)c4ccc(OC)c(F)c4)cc3C2)cc1 (stereo not shown) [Example 171, N-[(2E)-3-[(3-fluoro-4-methoxyphenyl)(imino)oxo-λ^6-sulfanyl]prop-2-en-1-yl]-6-[(4-methoxyphenyl)methyl]-2-oxo-1,2,5,6,7,8-hexahydro-1,6-naphthyridine-3-carboxamide] | ≤ 1000 | ≤ 1000
N=S(=O)(/C=C/CNC(=O)c1cc2c([nH]c1=O)CCCC2)c1cccc(OC(F)(F)F)c1 (stereo not shown) [Example 168, N-[(2E)-3-[imino(oxo)[3-(trifluoromethoxy)phenyl]-λ^6-sulfanyl]prop-2-en-1-yl]-2-oxo-1,2,5,6,7,8-hexahydroquinoline-3-carboxamide] | ≤ 100 | ≤ 1000
COc1ccc(S(=N)(=O)/C=C/CNC(=O)c2cc3c([nH]c2=O)CCN(CC2CC2)C3)cc1F (stereo not shown) [Example 185, 6-(cyclopropylmethyl)-N-[(2E)-3-[(3-fluoro-4-methoxyphenyl) (imino)oxo-λ^6-sulfanyl]prop-2-en-1-yl]-2-oxo-1,2,5,6,7,8-hexahydro-1,6-naphthyridine-3-carboxamide] | ≤ 10000 | ≤ 100000
O=C(NC/C=C/S(=O)(=O)c1ccccc1)c1cc2c([nH]c1=O)CCN(C(=O)CC13CC4CC(CC(C4)C1)C3)C2 [Example 106, 6-[2-(adamantan-1-yl)acetyl]-N-[(2E)-3-(benzenesulfonyl)prop-2-en-1-yl]-2-oxo-1,2,5,6,7,8-hexahydro-1,6-naphthyridine-3-carboxamide] | ≤ 1000 | ≤ 10000
COc1ccc(S(=N)(=O)/C=C/CNC(=O)c2cc3c([nH]c2=O)CCN(C(=O)OC2CCCCC2)C3)cc1F (stereo not shown) [Example 184, cyclohexyl 3-{[(2E)-3-[(3-fluoro-4-methoxyphenyl)(imino)oxo-λ^6-sulfanyl]prop-2-en-1-yl]carbamoyl}-2-oxo-1,2,5,6,7,8-hexahydro-1,6-naphthyridine-6-carboxylate] | ≤ 100 | ≤ 1000
COc1ccc(S(=N)(=O)/C=C/CNC(=O)c2cc3cnccc3[nH]c2=O)cc1F (stereo not shown) [Example 159, N-[(2E)-3-[(3-fluoro-4-methoxyphenyl)(imino)oxo-λ^6-sulfanyl]prop-2-en-1-yl]-2-oxo-1,2-dihydro-1,6-naphthyridine-3-carboxamide] | ≤ 1000 | ≤ 100000

Continued, in another order:

IC50 [1] [nM] | SMILES | IC50 [2] [nM]
≤ 1000 | CNc1ccc(S(=N)(=O)/C=C/CNC(=O)c2cc3c([nH]c2=O)CCCC3)cc1 (stereo not shown) [Example 174, N-[(2E)-3-{imino[4-(methylamino)phenyl]oxo-λ^6-sulfanyl}prop-2-en-1-yl]-2-oxo-1,2,5,6,7,8-hexahydroquinoline-3-carboxamide] | ≤ 1000
≤ 100 | N=S(=O)(/C=C/CNC(=O)c1cc2c([nH]c1=O)CCCC2)c1ccc(C(F)(F)F)cc1 (stereo not shown) [Example 154, N-[(2E)-3-[imino(oxo)[4-(trifluoromethyl)phenyl]-λ^6-sulfanyl]prop-2-en-1-yl]-2-oxo-1,2,5,6,7,8-hexahydroquinoline-3-carboxamide] | ≤ 1000
≤ 100 | N=S(=O)(/C=C/CNC(=O)c1cc2c([nH]c1=O)CCCC2)c1ccc(N2CCCC2)cc1 (stereo not shown) [Example 162, N-[(2E)-3-[imino(oxo)[4-(Pyrrolidin-1-yl)phenyl]-λ^6-sulfanyl]prop-2-en-1-yl]-2-oxo-1,2,5,6,7,8-hexahydroquinoline-3-carboxamide] | ≤ 1000
≤ 1000 | CC(=O)Nc1ccc(S(=N)(=O)/C=C/CNC(=O)c2cc3c([nH]c2=O)CCCC3)cc1 (stereo not shown) [Example 163, N-[(2E)-3-[(4-acetamidophenyl)(imino)oxo-λ^6-sulfanyl]prop-2-en-1-yl]-2-oxo-1,2,5,6,7,8-hexahydroquinoline-3-carboxamide] | ≤ 100000
≤ 1000 | N=S(=O)(/C=C/CNC(=O)c1cc2c([nH]c1=O)CCCC2)c1ccc(N2CCOCC2)cc1 (stereo not shown) [Example 160, N-[(2E)-3-{imino[4-(morpholin-4-yl)phenyl]oxo-λ^6-sulfanyl}prop-2-en-1-yl]-2-oxo-1,2,5,6,7,8-hexahydroquinoline-3-carboxamide] | ≤ 1000
≤ 1000 | N=S(=O)(/C=C/CNC(=O)c1cc2c([nH]c1=O)CCCC2)c1ccc2c(c1)CCO2 (stereo not shown) [Example 167, N-[(2E)-3-[(2,3-dihydro-1-benzofuran-5-yl)(imino)oxo-λ^6-sulfanyl]Prop-2-en-1-yl]-2-oxo-1,2,5,6,7,8-hexahydroquinoline-3-carboxamide] | ≤ 1000
≤ 100 | N=S(=O)(/C=C/CNC(=O)c1cc2c([nH]c1=O)CCCC2)c1ccc(C2CCCCC2)cc1 (stereo not shown) [Example 166, N-[(2E)-3-[(4-cyclohexylphenyl)(imino)oxo-λ^6-sulfanyl]prop-2-en-1-yl]-2-oxo-1,2,5,6,7,8-hexahydroquinoline-3-carboxamide] | ≤ 1000
≤ 100 | N=S(=O)(/C=C/CNC(=O)c1cc2c([nH]c1=O)CCCC2)c1ccc(-c2ccccc2)cc1 (stereo not shown) [Example 156, N-[(2E)-3-({[1,1′-biphenyl]-4-yl}(imino)oxo-λ^6-sulfanyl)prop-2-en-1-yl]-2-oxo-1,2,5,6,7,8-hexahydroquinoline-3-carboxamide] | ≤ 1000
